Data as given in article PMC6253839, “Screening of Agelasine D and Analogs for Inhibitory Activity against Pathogenic Protozoa; Identification of Hits for Visceral Leishmaniasis and Chagas Disease” (Molecules, 2009).
Converted amounts (≈) assume the structure as drawn. “Also recorded” adds a separate entry of the source. Like-named read-outs stand apart in the source and are kept apart here.

What was measured:
[1] = system: P. falciparum GHA-strain (chloroquine-suceptible); assay: Antiplasmodial activity, Malstat method; format: cell-based, Plasmodium falciparum; conditions: for IC50: Plasmodium falciparum, read-out: P. falciparum IC50
[2] = system: Leishmania infantum amastigotes (MHOM/ET 67); assay: Antileishmanial activity, amastigotes in primary peritoneal mouse macrophages; format: cell-based; conditions: for IC50: Leishmania infantum, Macrophage, 120 h, read-out: L. infantum IC50; for hit for leishmaniasis according to TDR: criterion IC50 <0.5 μg/mL and SI >20
Experimental: Leishmania infantum amastigotes (MHOM/ET 67) were collected from an infected donor hamster and used to infect primary peritoneal mouse macrophages. To determine in vitro antileishmanial activity, 3×10^4 macrophages were seeded in each well of a 96-well plate. After 48 h outgrowth, 5×10^4 amastigotes/well were added and incubated for 2 h at 37 °C. […] Parasite burdens were determined microscopically after Giemsa staining and expressed as a percentage of the blank controls without compound.

[3] = system: T. cruzi Tulahuen CL2 strain (nifurtimox-sensitive); assay: Antitrypanosomal activity, T. cruzi on MRC-5 cells, β-galactosidase readout; format: cell-based, Trypanosoma cruzi; conditions: for IC50: Trypanosoma cruzi, TULAHUEN
Experimental: To determine in vitro anti-trypanosomal activity, 4×10^3 MRC-5 cells and 4×10^4 parasites were added to each well of test plate with compound. […] The color reaction was read at 540 nm and absorbance values were expressed as a percentage of the blank controls.

[4] = Cytotoxicity assay, resazurin; format: cell-based; conditions: human
Experimental: Cell viability was determined after addition of resazurin.

Staphyllococcus aureus = system: Staphyllococcus aureus; design: method as in PMID 17442577; conditions: previous studies; cited from earlier work
Escherichia coli = system: Escherichia coli; design: method as in PMID 17442577; conditions: previous studies; cited from earlier work
[5] = system: Mycobacterium tuberculosis; conditions: cited from earlier work
[6] = GHA-strain, 72 h, TDR hit criterion <0.2 μg/mL
[7] = intracellular amastigotes, TDR hit criterion <0.5 μg/mL
[8] = MRC5, 168 h, read-out: T. cruzi IC50
[9] = MRC-5 SV2 cells (human fetal lung fibroblasts)

SMILES	IC50 [1, 6] [µg/mL]	IC50 [2, 7] [µg/mL]	IC50 [3, 8] [µg/mL]	IC50 at 72 h [4, 9] [µg/mL]	other results
CC1=C(CC/C(C)=C/CC/C(C)=C/C[n+]2cn(C)c3nc[n-]/c(=N\OCc4ccccc4)c32)C(C)(C)CCC1 [Compound 1l]	1.3	12 (≈ 22.7 µM)	0.14 (≈ 0.265 µM)	0.53 (≈ 1 µM)	–
C/C(=C\C[n+]1cn(C)c2ncnc(N)c21)CCCC(C)CCCC(C)CCCC(C)C (centres unmarked) [Compound 2b]	–	–	< 0.12	–	IC50 ([1]; 72 h): 0.96 µg/mL; IC50 [2]: 2.9 µg/mL; IC50 at 72 h ([4]; read-out: MRC-5 IC50): 0.75 µg/mL
CC(C)=CCC/C(C)=C\CC/C(C)=C/C[n+]1cn(C)c2nc[n-]/c(=N\OCc3ccccc3)c21 [Compound 1c]	0.74	0.99 (≈ 2.15 µM)	< 0.11	0.31 (≈ 0.674 µM)	–
CC(C)=CCC/C(C)=C/CC/C(C)=C/CC/C(C)=C/C[n+]1cn(CCC#N)c2nc[n-]/c(=N\OCc3ccccc3)c21 [Compound 1h]	10	18 (≈ 31.8 µM)	3 (≈ 5.29 µM)	3.5 (≈ 6.18 µM)	–
CC(C)=CCC/C(C)=C/CC/C(C)=C/CC/C(C)=C/C[n+]1cn(C)c2nc[n-]/c(=N\OC(C)(C)C)c21 [Compound 1f]	0.26	0.27 (≈ 0.547 µM)	< 0.12	0.26 (≈ 0.527 µM)	activity against L. infantum, in words [2]: potent inhibitors
CO/N=c1\[n-]cnc2c1[n+](C/C=C(\C)CC/C=C(\C)CC/C=C(\C)CCC=C(C)C)cn2CCC#N [Compound 1g]	5.3	12 (≈ 24.5 µM)	0.81 (≈ 1.65 µM)	0.49 (≈ 0.999 µM)	–
CC(C)=CCC/C(C)=C/CC/C(C)=C/CC/C(C)=C/C[n+]1cnc2c(ncn2C)c1N [Compound 7]	10	> 32	11	16	–
CC(C)=CCC/C(C)=C/CC/C(C)=C/CC/C(C)=C/Cn1cnc2ncnc(N)c21 [Compound 4a]	9.4	> 26	2.3 (≈ 5.64 µM)	2.6 (≈ 6.38 µM)	–
CO/N=c1\[n-]cnc2c1n(C/C=C(\C)CCC=C(C)C)c[n+]2C [Compound 1a]	0.46	7.5 (≈ 23.8 µM)	< 0.079	0.86 (≈ 2.73 µM)	–
CC(C)=CCC/C(C)=C/CC/C(C)=C/CC/C(C)=C/Cn1cnc2ncnc(NOCc3ccccc3)c21 [Compound 4c]	25	> 33	1.5 (≈ 2.92 µM)	1.5 (≈ 2.92 µM)	–
CC(C)=CCC/C(C)=C/CC/C(C)=C/CC/C(C)=C/Cn1cnc2c(N)ncnc21 [Compound 3f, 9-Geranylgeranyladenine]	> 29	> 29	0.77 (≈ 1.89 µM)	2.7 (≈ 6.62 µM)	IC50 ([3]; MRC5, read-out: T. cruzi IC50): < 1 µg/mL
CCN(CC)CCCC(C)Nc1ccnc2cc(Cl)ccc12 (centres unmarked) [Chloroquine, reference compound]	–	–	–	–	IC50 ([1]; 72 h): 0.04 µg/mL
CC(C)=CCC/C(C)=C/CC/C(C)=C/CC/C(C)=C/C[n+]1cn(C)c2nc[n-]/c(=N\OCc3ccccc3)c21 [Compound 1e]	4.2	5.4 (≈ 10.2 µM)	1.4 (≈ 2.65 µM)	3.2 (≈ 6.06 µM)	–
CO/N=c1\[n-]cnc2c1[n+](C/C=C(\C)CC/C=C(\C)CC/C=C(\C)CCC=C(C)C)cn2C(c1ccccc1)c1ccccc1 [Compound 1i]	3.5	1.2 (≈ 1.99 µM)	1.3 (≈ 2.15 µM)	0.92 (≈ 1.52 µM)	–
CC(C)=CCC/C(C)=C/CC/C(C)=C/CC/C(C)=C/Cn1cc[n+](C)c1 [Compound 5]	0.97	< 0.11	< 0.11	7.6	hit for leishmaniasis according to TDR [2]: classifies as a hit; also recorded: identified as hits; hit for Chagas disease according to TDR [3]: classified as hits; also recorded: identified as hits; antibacterial activity against S. aureus, in words (Staphyllococcus aureus): reasonably active; antibacterial activity against E. coli, in words (Escherichia coli): not against; antibacterial activity against M. tuberculosis, in words ([5]; previous studies): not against
CC1=C(CC/C(C)=C/CC/C(C)=C/C[n+]2cn(C)c3nc[n-]/c(=N\OC(C)(C)C)c32)C(C)(C)CCC1 [Compound 1m]	0.69	0.99 (≈ 2.01 µM)	< 0.12	0.48 (≈ 0.972 µM)	–
C=C1CC[C@H]2C(C)(C)CCC[C@]2(C)[C@H]1CC/C(C)=C/Cn1c[n+](C)c2nc[n-]/c(=N\OC)c21 [Compound 1n]	0.29	0.63 (≈ 1.39 µM)	0.49 (≈ 1.08 µM)	4.5 (≈ 9.96 µM)	–
CCCCCCCCCCCCCCCCOP(=O)([O-])OCC[N+](C)(C)C [Miltefosine, reference compound]	–	0.24 (≈ 0.589 µM)	–	–	–
CC1=C(CC/C(C)=C/CC/C(C)=C/Cn2cnc3c2C(=N)N(C)CN3C)C(C)(C)CCC1 [Compound 9]	> 28	> 28	3.2 (≈ 7.31 µM)	> 28	IC50 ([3]; MRC5, read-out: T. cruzi IC50): < 1 µg/mL
CONc1ncnc2ncn(C/C=C(\C)CC/C=C(\C)CC/C=C(\C)CCC=C(C)C)c12 [Compound 4b]	> 28	> 28	0.28 (≈ 0.64 µM)	2.1 (≈ 4.8 µM)	–
C=C1CC[C@H]2C(C)(C)CCC[C@]2(C)[C@H]1CC/C(C)=C/Cn1c[n+](C)c2nc[n-]/c(=N\OC(C)(C)C)c21 [Compound 1o]	0.94	4 (≈ 8.1 µM)	< 0.12	0.45 (≈ 0.911 µM)	–
CC(C)=CCC/C(C)=C/CC/C(C)=C/CC/C(C)=C/Cn1c[n+](C)c2ccccc21 [Compound 6]	1	2.5	< 0.12	2	–
CC(C)=CCC/C(C)=C\CC/C(C)=C/C[n+]1cn(C)c2ncnc(N)c21 [Compound 2a]	2.9	> 26	0.43	> 26	hit for Chagas disease according to TDR [3]: classified as hits; also recorded: identified as hits; antibacterial activity against S. aureus, in words (Staphyllococcus aureus): virtually inactive; antibacterial activity against E. coli, in words (Escherichia coli): virtually inactive; antibacterial activity against M. tuberculosis, in words ([5]; previous studies): virtually inactive
CC(C)=CCC/C(C)=C/CC/C(C)=C/CC/C(C)=C/Cn1cnc2c1c(=N)ncn2C [Compound 8]	3.37	13 (≈ 30.8 µM)	0.19 (≈ 0.451 µM)	2.3 (≈ 5.45 µM)	–
C=C1CC[C@@H]2C(C)(C)CCC[C@@]2(C)[C@@H]1CC/C(C)=C/Cn1c[n+](C)c2ncnc(N)c21 [Compound 2c, agelasine D]	0.29	1.5	4.5	–	IC50 ([1]; same value as 0.29 μg/mL, in μM): 0.63 µM; IC50 at 72 h ([4]; read-out: MRC-5 IC50): 6.7 µg/mL
O=C(Cn1ccnc1[N+](=O)[O-])NCc1ccccc1 [Benznidazole, reference compound]	–	–	–	–	IC50 ([3]; MRC5, as printed in running text and table footnote, read-out: T. cruzi IC50): 0.25 µg/mL (≈ 0.961 µM)
CO/N=c1\[n-]cnc2c1[n+](C/C=C(\C)CC/C=C(\C)CCC=C(C)C)cn2C [Compound 1b]	0.63	0.77 (≈ 2.01 µM)	< 0.096	0.35 (≈ 0.913 µM)	–
CO/N=c1\[n-]cnc2c1[n+](C/C=C(\C)CC/C=C(\C)CC/C=C(\C)CCC=C(C)C)cn2C [Compound 1d]	0.1	0.093 (≈ 0.206 µM)	0.11 (≈ 0.244 µM)	2 (≈ 4.43 µM)	antimalaria hit according to TDR ([1]; criterion IC50 <0.2 μg/mL with SI >20): met this requirement; hit for leishmaniasis according to TDR [2]: meets the definition of a hit; also recorded: identified as hits; IC50 ([3]; MRC5, read-out: T. cruzi IC50): < 1 µg/mL; antibacterial activity against M. tuberculosis, in words ([5]; previously shown): inhibition of Mycobacterium tuberculosis
CO/N=c1\[n-]cnc2c1[n+](C/C=C(\C)CCCC(C)CCCC(C)CCCC(C)C)cn2C (centres unmarked) [Compound 1j]	0.3	0.23 (≈ 0.503 µM)	< 0.11	0.21 (≈ 0.459 µM)	activity against L. infantum, in words [2]: potent inhibitors
